Data: paper PMC9667784, “Synthesis, biological evaluation and computational studies of pyrazole derivatives as Mycobacterium tuberculosis CYP121A1 inhibitors” (RSC Medicinal Chemistry, 2022)

Target: BTFA-labelled CYP121_S171C (Mycobacterium tuberculosis, UniProt P9WPP7, S171C)
Format: binding

Compound	19F NMR perturbations of the FG-loop compared with cYY
CCOc1ccc(-c2nn(-c3ccc(Cl)cc3)cc2Cn2cncn2)cc1 [12d, 1-((1-(4-Chlorophenyl)-3-(4-ethoxyphenyl)-1H-pyrazol-4-yl)methyl)-1H-1,2,4-triazole]	more intense than that of cYY
COc1ccc(-c2nn(-c3ccc(Cl)cc3)cc2Cn2cncn2)cc1 [12b, 1-((1-(4-Chlorophenyl)-3-(4-methoxyphenyl)-1H-pyrazol-4-yl)methyl)-1H-1,2,4-triazole]	more intense than that of cYY
